Experimental data: article PMC5643385, “Probing ligand recognition of the opioid pan antagonist AT-076 at nociceptin, kappa, mu, and delta opioid receptors through structure-activity relationships” (Scientific Reports, 2017)
Read-outs that look alike come from different tables or passages of the source.

Key:
[1] = molecular target: T1, human DOP receptor (Homo sapiens, UniProt P41143); experiment: [35S]GTPγS functional assay (intrinsic activity; Schild analysis vs DPDPE); format: biochemical; settings: inhibition of agonist-induced [35S]GTPγS binding, read-out: Antagonist Potency (pA2 ± SEM) DOP (converted)
[2] = molecular target: T2, human KOP receptor (Homo sapiens, UniProt P41145); parameters: method as in PMID 25635572; settings: Figure 1; cited from earlier work
[3] = molecular target: T2, human KOP receptor; experiment: biochemical
[4] = molecular target: T3, human MOP receptor (Homo sapiens, UniProt P35372); settings: read-out: MOP Ki; Figure 1; cited from earlier work
[5] = molecular target: T2, human KOP receptor; experiment: Radioligand competition binding, [3H]U69,593, membranes of transfected CHO cells (Kappa-CN)
[6] = molecular target: T1, human DOP receptor; settings: read-out: DOP Ki; Figure 1; cited from earlier work
[7] = molecular target: T3, human MOP receptor; experiment: Radioligand competition binding, [3H]DAMGO, membranes of transfected CHO cells
[8] = molecular target: T3, human MOP receptor; experiment: biochemical
[9] = molecular target: T1, human DOP receptor; experiment: Radioligand competition binding, [3H]DPDPE, membranes of transfected CHO cells
[10] = molecular target: T4, human NOP receptor (Homo sapiens, UniProt P41146); experiment: Radioligand competition binding, [3H]N/OFQ, membranes of transfected CHO cells
[11] = molecular target: T4, human NOP receptor; parameters: method as in PMID 25635572; settings: Figure 1; cited from earlier work
[12] = read-out: Receptor Binding, Ki DOP
[13] = [3H]N/OFQ displacement, Cheng-Prusoff, mean ± SEM, at least three experiments in triplicate, read-out: Receptor Binding, Ki NOP
[14] = [3H]U69,593 displacement, Cheng-Prusoff, mean ± SEM, at least three experiments in triplicate, read-out: Receptor Binding, Ki KOP
[15] = [3H]DAMGO displacement, Cheng-Prusoff, mean ± SEM, at least three experiments in triplicate, read-out: Receptor Binding, Ki MOP

CC(C)[C@@H](CN1CCC(c2cccc(O)c2)CC1)NC(=O)[C@H]1Cc2ccc(O)cc2CN1 [1 (AT-076), (R)-7-hydroxy-N-((S)-1-(4-(3-hydroxyphenyl)piperidin-1-yl)-3-methylbutan-2-yl)-1,2,3,4-tetrahydroisoquinoline-3-carboxamide]
Kb [1]: 26.9 nM
Ki [2]: 1.14 ± 0.63 nM
Antagonist Potency (pA2 ± SEM) KOP ([3]; cho cell membranes): 8.366
Ki [4]: 1.67 ± 0.6 nM
Ki ([5]; read-out: Receptor Binding, Ki KOP): 1.14 ± 0.63 nM
Ki [6]: 19.6 ± 1.3 nM
Ki ([7]; read-out: Receptor Binding, Ki MOP): 1.67 ± 0.6 nM
Antagonist Potency (pA2 ± SEM) MOP ([8]; cho cell membranes): 9.24
Ki [9, 12]: 19.6 ± 1.3 nM

CC(C)[C@@H](CN1CCC(c2cccc(O)c2)CC1)NC(=O)[C@H]1Cc2ccc(C#N)cc2CN1 [Compound 2, (R)-7-cyano-N-((S)-1-(4-(3-hydroxyphenyl)piperidin-1-yl)-3-methylbutan-2-yl)-1,2,3,4-tetrahydroisoquinoline-3-carboxamide]
Profile in Schild analysis KOP [3]: N/C^#
Ki [10, 13]: 1890 ± 270 nM
Decrease in KOP binding affinity compared to AT-076 [5]: 6 fold
Ki [5]: 6.73 ± 1.42 nM
Ki [7]: 81.7 ± 12.4 nM
Ki [9]: 73.7 ± 57.9 nM

CC(C)[C@@H](CN1CCC(c2cccc(CN)c2)CC1)NC(=O)[C@H]1Cc2ccccc2CN1 [Compound 11, (R)-N-((S)-1-(4-(3-(aminomethyl)phenyl)piperidin-1-yl)-3-methylbutan-2-yl)-1,2,3,4-tetrahydroisoquinoline-3-carboxamide]
Ki [10, 13]: 202 ± 55.6 nM
Ki [5, 14]: 408 ± 30.8 nM
Ki [7, 15]: 284 ± 75.3 nM
Ki [9, 12]: > 10000 nM

CC(C)[C@@H](CN1CCC(c2cccc(C#N)c2)CC1)NC(=O)[C@H]1Cc2ccc(O)cc2CN1 [Compound 8, (R)-N-((S)-1-(4-(3-cyanophenyl)piperidin-1-yl)-3-methylbutan-2-yl)-7-hydroxy-1,2,3,4-tetrahydroisoquinoline-3-carboxamide]
Kb [3]: 0.269 nM
Ki [10]: 61.3 ± 14.6 nM
Ki [5]: 3.86 ± 0.09 nM
Ki [7]: 2.93 ± 0.67 nM
Kb [8]: 8.13 nM
Ki [9, 12]: 136 ± 59.7 nM

CC(C)[C@@H](CN1CCC(N2CCc3ccccc32)CC1)NC(=O)[C@H]1Cc2ccc(O)cc2CN1 [Compound 16, (R)-7-hydroxy-N-((S)-1-(4-(indolin-1-yl)piperidin-1-yl)-3-methylbutan-2-yl)-1,2,3,4-tetrahydroisoquinoline-3-carboxamide]
Ki [10, 13]: 566 ± 129 nM
Ki [9, 12]: 138 ± 45 nM

CC(C)[C@@H](CN1CCC(c2cccc(O)c2)CC1)NC(=O)[C@H]1Cc2ccc(CN)cc2CN1 [Compound 3, (R)-7-(aminomethyl)-N-((S)-1-(4-(3-hydroxyphenyl)piperidin-1-yl)-3-methylbutan-2-yl)-1,2,3,4-tetrahydroisoquinoline-3-carboxamide]
Ki [10, 13]: 5540 ± 1150 nM
Decrease in KOP binding affinity compared to AT-076 [5]: > 100 fold
Ki [5, 14]: 118 ± 29 nM
Decrease in MOP binding affinity compared to AT-076 [7]: > 100 fold
Ki [7, 15]: 1490 ± 220 nM
Decrease in DOP binding affinity compared to AT-076 [9]: > 100 fold
Ki [9, 12]: 1570 ± 1130 nM

CC(C)[C@@H](CN1CCC(c2cccc(O)c2)CC1)NC(=O)[C@@H](N)CCCNC(=N)N [Compound 7, (S)-2-amino-5-guanidino-N-((S)-1-(4-(3-hydroxyphenyl)piperidin-1-yl)-3-methylbutan-2-yl)pentanamide]
Ki [10, 13]: > 10000 nM
Ki [5, 14]: 125 ± 2.4 nM
Ki [7, 15]: 1440 ± 57.6 nM
Ki [9, 12]: > 10000 nM

CC(C)[C@@H](CN1CCC(c2cccc(C#N)c2)CC1)NC(=O)[C@H]1Cc2ccccc2CN1 [Compound 9, (R)-N-((S)-1-(4-(3-cyanophenyl)piperidin-1-yl)-3-methylbutan-2-yl)-1,2,3,4-tetrahydroisoquinoline-3-carboxamide]
Ki [10, 13]: > 10000 nM
Ki [5, 14]: 543 ± 62.2 nM
Ki [7, 15]: 973 ± 21 nM
Ki [9, 12]: > 10000 nM

CC(C)[C@@H](CN1CC[C@@](C)(c2cccc(O)c2)[C@@H](C)C1)NC(=O)[C@H]1Cc2ccc(O)cc2CN1 [JDTic, reference compound]
Ki ([10]; read-out: Receptor Binding, Ki NOP): 16.7 ± 0.76 nM
Ki [11]: 16.7 ± 0.76 nM
